± gives the expanded uncertainty stated by the source.
Assay: xn = mol fraction of the nth substance listed
Conditions: 100 kPa, Liquid; for viscosity: Concentric cylinders viscometry; for mass density: Vibrating tube method; for electrical conductivity: Alternating current cell with electrodes

Question: With O=[PH](O)O [phosphonic acid] + CN(C)C=O as the compound, how does the viscosity (308.15 K, x1 = 0.5503) read?
Answer: The viscosity was 42.4 ± 2.6 mPa·s.

Question: And the viscosity (308.15 K, x1 = 0.5761)?
Answer: The viscosity was 48.6 ± 2.9 mPa·s.

Question: What about the viscosity (308.15 K, x1 = 0.5993) of the same compound?
Answer: Its viscosity is 51 ± 3.1 mPa·s.

Question: And the viscosity (308.15 K, x1 = 0.6261)?
Answer: Its viscosity is 59.4 ± 3.6 mPa·s.

Question: And the viscosity (308.15 K, x1 = 0.6316)?
Answer: The viscosity was 61.2 ± 3.7 mPa·s.

Question: What about the viscosity (308.15 K, x1 = 0.6478) of the same compound?
Answer: Its viscosity is 64.5 ± 3.9 mPa·s.

Question: And the viscosity (308.15 K, x1 = 0.6554)?
Answer: The viscosity was 66.1 ± 4 mPa·s.

Question: And the viscosity (308.15 K, x1 = 0.682)?
Answer: Its viscosity is 72.4 ± 4.4 mPa·s.

Question: And the viscosity (308.15 K, x1 = 0.7142)?
Answer: Its viscosity is 78.3 ± 4.7 mPa·s.

Question: What about the viscosity (308.15 K, x1 = 0.7694) of the same compound?
Answer: Its viscosity is 87.4 ± 5.3 mPa·s.

Question: And the viscosity (308.15 K, x1 = 0.7832)?
Answer: Its viscosity is 88.2 ± 5.4 mPa·s.

Question: What about the mass density (308.15 K, x1 = 0.0911) of the same compound?
Answer: Its mass density is 983.17 ± 10 kg/m3.

Question: And the mass density (308.15 K, x1 = 0.1365)?
Answer: Its mass density is 1007.16 ± 10 kg/m3.

Question: What about the mass density (308.15 K, x1 = 0.1798) of the same compound?
Answer: The mass density was 1031.35 ± 10 kg/m3.

Question: And the mass density (308.15 K, x1 = 0.1829)?
Answer: The mass density was 1032.63 ± 10 kg/m3.

Question: And the mass density (308.15 K, x1 = 0.2293)?
Answer: Its mass density is 1060.16 ± 10 kg/m3.

Question: What about the mass density (308.15 K, x1 = 0.291) of the same compound?
Answer: The mass density was 1095.72 ± 10 kg/m3.

Question: What about the mass density (308.15 K, x1 = 0.3298) of the same compound?
Answer: Its mass density is 1120.73 ± 10 kg/m3.

Question: What about the mass density (308.15 K, x1 = 0.3442) of the same compound?
Answer: Its mass density is 1128.83 ± 10 kg/m3.

Question: What about the mass density (308.15 K, x1 = 0.3712) of the same compound?
Answer: Its mass density is 1145.98 ± 10 kg/m3.

Question: What about the mass density (308.15 K, x1 = 0.3937) of the same compound?
Answer: The mass density was 1160.41 ± 10 kg/m3.

Question: What about the mass density (308.15 K, x1 = 0.4107) of the same compound?
Answer: Its mass density is 1173.31 ± 10 kg/m3.

Question: What about the mass density (308.15 K, x1 = 0.421) of the same compound?
Answer: The mass density was 1179.34 ± 10 kg/m3.

Question: What about the mass density (308.15 K, x1 = 0.4479) of the same compound?
Answer: The mass density was 1198.35 ± 10 kg/m3.

Question: What about the mass density (308.15 K, x1 = 0.4707) of the same compound?
Answer: Its mass density is 1213.06 ± 10 kg/m3.

Question: What about the mass density (308.15 K, x1 = 0.493) of the same compound?
Answer: Its mass density is 1227.23 ± 10 kg/m3.

Question: And the mass density (308.15 K, x1 = 0.5074)?
Answer: Its mass density is 1236.13 ± 10 kg/m3.

Question: What about the mass density (308.15 K, x1 = 0.5196) of the same compound?
Answer: Its mass density is 1246.49 ± 10 kg/m3.

Question: What about the mass density (308.15 K, x1 = 0.5429) of the same compound?
Answer: Its mass density is 1262.02 ± 10 kg/m3.

Question: And the mass density (308.15 K, x1 = 0.5724)?
Answer: Its mass density is 1283.54 ± 10 kg/m3.

Question: And the mass density (308.15 K, x1 = 0.5925)?
Answer: Its mass density is 1297.57 ± 10 kg/m3.

Question: And the mass density (308.15 K, x1 = 0.6245)?
Answer: The mass density was 1320.2 ± 10 kg/m3.

Question: And the mass density (308.15 K, x1 = 0.6554)?
Answer: Its mass density is 1347.39 ± 10 kg/m3.

Question: And the mass density (308.15 K, x1 = 0.6753)?
Answer: The mass density was 1356.23 ± 10 kg/m3.

Question: What about the mass density (308.15 K, x1 = 0.6923) of the same compound?
Answer: Its mass density is 1370.56 ± 10 kg/m3.

Question: What about the mass density (308.15 K, x1 = 0.7142) of the same compound?
Answer: The mass density was 1390.77 ± 10 kg/m3.

Question: And the mass density (308.15 K, x1 = 0.725)?
Answer: Its mass density is 1393.35 ± 10 kg/m3.

Question: What about the mass density (308.15 K, x1 = 0.7592) of the same compound?
Answer: The mass density was 1424.69 ± 10 kg/m3.

Question: And the mass density (308.15 K, x1 = 0.7694)?
Answer: Its mass density is 1435.87 ± 10 kg/m3.

Question: And the mass density (308.15 K, x1 = 0.7845)?
Answer: Its mass density is 1442.56 ± 10 kg/m3.

Question: What about the electrical conductivity (318.15 K, x1 = 0.1181) of the same compound?
Answer: The electrical conductivity was 0.0725 ± 0.0073 S/m.

Question: And the electrical conductivity (318.15 K, x1 = 0.2984)?
Answer: The electrical conductivity was 0.142 ± 0.014 S/m.

Question: What about the electrical conductivity (318.15 K, x1 = 0.3298) of the same compound?
Answer: Its electrical conductivity is 0.148 ± 0.015 S/m.

Question: And the electrical conductivity (318.15 K, x1 = 0.3968)?
Answer: Its electrical conductivity is 0.217 ± 0.022 S/m.

Question: What about the electrical conductivity (318.15 K, x1 = 0.4479) of the same compound?
Answer: Its electrical conductivity is 0.25 ± 0.025 S/m.

Question: What about the electrical conductivity (318.15 K, x1 = 0.5761) of the same compound?
Answer: The electrical conductivity was 0.397 ± 0.04 S/m.

Question: And the electrical conductivity (318.15 K, x1 = 0.6316)?
Answer: The electrical conductivity was 0.548 ± 0.055 S/m.

Question: And the electrical conductivity (318.15 K, x1 = 0.6554)?
Answer: The electrical conductivity was 0.626 ± 0.063 S/m.

Question: What about the electrical conductivity (318.15 K, x1 = 0.682) of the same compound?
Answer: Its electrical conductivity is 0.81 ± 0.081 S/m.

Question: What about the electrical conductivity (318.15 K, x1 = 0.7694) of the same compound?
Answer: The electrical conductivity was 1.33 ± 0.13 S/m.

Question: And the electrical conductivity (318.15 K, x1 = 0.7832)?
Answer: The electrical conductivity was 1.41 ± 0.14 S/m.

Question: And the viscosity (318.15 K, x1 = 0.1973)?
Answer: The viscosity was 2.16 ± 0.13 mPa·s.

Question: What about the viscosity (318.15 K, x1 = 0.2507) of the same compound?
Answer: The viscosity was 3.35 ± 0.2 mPa·s.

Question: What about the viscosity (318.15 K, x1 = 0.2984) of the same compound?
Answer: Its viscosity is 4.77 ± 0.29 mPa·s.

Question: What about the viscosity (318.15 K, x1 = 0.3115) of the same compound?
Answer: The viscosity was 5.21 ± 0.31 mPa·s.

Question: And the viscosity (318.15 K, x1 = 0.3491)?
Answer: The viscosity was 7.26 ± 0.44 mPa·s.

Question: What about the viscosity (318.15 K, x1 = 0.3968) of the same compound?
Answer: Its viscosity is 10.5 ± 0.6 mPa·s.

Question: And the viscosity (318.15 K, x1 = 0.3988)?
Answer: Its viscosity is 10.6 ± 0.6 mPa·s.

Question: What about the viscosity (318.15 K, x1 = 0.4107) of the same compound?
Answer: The viscosity was 12 ± 0.7 mPa·s.

Question: What about the viscosity (318.15 K, x1 = 0.4479) of the same compound?
Answer: Its viscosity is 15.8 ± 1 mPa·s.

Question: What about the viscosity (318.15 K, x1 = 0.4968) of the same compound?
Answer: Its viscosity is 21.2 ± 1.3 mPa·s.

Question: And the viscosity (318.15 K, x1 = 0.5074)?
Answer: The viscosity was 22.2 ± 1.3 mPa·s.

Question: And the viscosity (318.15 K, x1 = 0.5503)?
Answer: The viscosity was 30 ± 1.8 mPa·s.

Question: What about the viscosity (318.15 K, x1 = 0.5761) of the same compound?
Answer: The viscosity was 34.1 ± 2.1 mPa·s.

Question: What about the viscosity (318.15 K, x1 = 0.5993) of the same compound?
Answer: Its viscosity is 35.2 ± 2.1 mPa·s.

Question: What about the viscosity (318.15 K, x1 = 0.6261) of the same compound?
Answer: Its viscosity is 41.2 ± 2.5 mPa·s.

Question: And the viscosity (318.15 K, x1 = 0.6316)?
Answer: The viscosity was 42 ± 2.5 mPa·s.

Question: And the viscosity (318.15 K, x1 = 0.6478)?
Answer: The viscosity was 43.6 ± 2.6 mPa·s.

Question: What about the viscosity (318.15 K, x1 = 0.6554) of the same compound?
Answer: Its viscosity is 45 ± 2.7 mPa·s.

Question: And the viscosity (318.15 K, x1 = 0.682)?
Answer: The viscosity was 49 ± 3 mPa·s.

Question: What about the viscosity (318.15 K, x1 = 0.7142) of the same compound?
Answer: The viscosity was 51.4 ± 3.1 mPa·s.

Question: What about the viscosity (318.15 K, x1 = 0.7694) of the same compound?
Answer: Its viscosity is 57.3 ± 3.5 mPa·s.

Question: What about the viscosity (318.15 K, x1 = 0.7832) of the same compound?
Answer: Its viscosity is 58.4 ± 3.5 mPa·s.

Question: And the mass density (318.15 K, x1 = 0.0911)?
Answer: The mass density was 973.7 ± 10 kg/m3.

Question: What about the mass density (318.15 K, x1 = 0.1365) of the same compound?
Answer: The mass density was 997.83 ± 10 kg/m3.

Question: And the mass density (318.15 K, x1 = 0.1798)?
Answer: Its mass density is 1022.15 ± 10 kg/m3.

Question: And the mass density (318.15 K, x1 = 0.1829)?
Answer: The mass density was 1023.41 ± 10 kg/m3.

Question: What about the mass density (318.15 K, x1 = 0.2293) of the same compound?
Answer: The mass density was 1051.04 ± 10 kg/m3.

Question: What about the mass density (318.15 K, x1 = 0.291) of the same compound?
Answer: Its mass density is 1086.67 ± 10 kg/m3.

Question: What about the mass density (318.15 K, x1 = 0.3298) of the same compound?
Answer: Its mass density is 1111.75 ± 10 kg/m3.

Question: What about the mass density (318.15 K, x1 = 0.3442) of the same compound?
Answer: Its mass density is 1119.89 ± 10 kg/m3.

Question: What about the mass density (318.15 K, x1 = 0.3712) of the same compound?
Answer: Its mass density is 1137.21 ± 10 kg/m3.

Question: And the mass density (318.15 K, x1 = 0.3937)?
Answer: Its mass density is 1151.58 ± 10 kg/m3.

Question: And the mass density (318.15 K, x1 = 0.4107)?
Answer: The mass density was 1164.51 ± 10 kg/m3.

Reference: the NIST ThermoML archive (doi:10.1021/acs.jced.6b00430)
